From PubChem BioAssay (NCI)
Several values for one entry are separate records, joined by “and”; a condition that tells them apart may be missing. Equal values may be shown once.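 The compound was tested at five concentrations on cells cultured in 96-well plates, with a 48-hour exposure period. Here, GI50 denotes the concentration required for 50% inhibition of growth. TGI marks complete inhibition of growth.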

What was measured:
Assay in all cases: growth of human tumour cells (NCI), 48 h
EKVX NSCLC = system: EKVX NSCLC
SF-539 CNS = system: SF-539 CNS
SK-MEL-5 melanoma = system: SK-MEL-5 melanoma
U251 CNS = system: U251 CNS
OVCAR-4 ovarian = system: OVCAR-4 ovarian
SN12C renal = system: SN12C renal
NCI-H460 lung = system: NCI-H460 lung
NCI/ADR-RES ovarian = system: NCI/ADR-RES ovarian
CAKI-1 renal = system: CAKI-1 renal
T-47D breast = system: T-47D breast

Structure (SMILES) | GI50 (EKVX NSCLC) [µM] | TGI (EKVX NSCLC) [µM] | GI50 (SF-539 CNS) [µM] | TGI (SF-539 CNS) [µM] | GI50 (SK-MEL-5 melanoma) [µM] | TGI (SK-MEL-5 melanoma) [µM] | GI50 (U251 CNS) [µM] | TGI (U251 CNS) [µM] | GI50 (OVCAR-4 ovarian) [µM] | TGI (OVCAR-4 ovarian) [µM] | GI50 (SN12C renal) [µM] | TGI (SN12C renal) [µM] | GI50 (NCI-H460 lung) [µM] | TGI (NCI-H460 lung) [µM] | GI50 (NCI/ADR-RES ovarian) | TGI (NCI/ADR-RES ovarian) | GI50 (CAKI-1 renal) [µM] | TGI (CAKI-1 renal) [µM] | GI50 (T-47D breast) [µM] | TGI (T-47D breast) [µM]
CC(C)CCOc1ccc(-c2n[nH]c(C(F)(F)F)c2-c2cncc(C#N)c2)c(O)c1 | 2.28 | 13.2 | 2.8 | 16.7 | 0.943 | 2.57 | 2 | 8.4 | 3.48 | > 100 | 2.34 | 15.9 | 2.5 | 12.5 | 2.2 µM | 7.35 µM | 3.17 | 13.6 | 1.56 | 6.54
C=C1C[C@](OC)([C@H](O)C(=O)N[C@@H](OC)[C@@H]2C[C@@H](O)C(C)(C)[C@@H](C[C@@H](COC)OC)O2)O[C@H](C)[C@@H]1C | 0.00162 | 0.00667 | 0.000166 | 0.00213 | – | 0.000262 | 0.00175 | 0.00769 | 0.00227 | 0.0198 | 0.00174 | 0.00638 | 0.00072 | 0.00266 | 0.0141 µM and 0.0297 µM | 0.142 µM and 0.314 µM | 0.00184 | 0.00544 | 0.000814 | 0.00548
CCOC(=O)c1sc2nc3sc(N=Nc4ccc(Cl)cc4)c(O)n3c(=S)c2c1C | 5.43 | 39.6 | 25.1 | 50.5 | 17.1 | 35.8 | 29.1 | > 100 | 47.4 | > 100 | 15.5 | 46.5 | 25.9 | > 100 | 17.4 µM | 44.6 µM | 28.1 | 57.3 | 0.609 | 21.9
NS(=O)(=O)c1cc2c(cc1Cl)NC(Cc1ccccc1)NS2(=O)=O (stereo unspecified) | – | > 100 | – | > 100 | – | > 100 | – | > 100 | – | > 100 | – | > 100 | – | > 100 | – | > 100 µM | – | > 100 | – | > 100
CC(C)[C@@]12C[C@@H](OC(=O)[C@H]3CO3)[C@@](C)(O1)[C@@H]1CC[C@@H](C)[C@H]1[C@@H]2OC(=O)/C=C/c1ccccc1 | 16.3 | > 75.6 | 17.5 | 43.3 | 14.9 | 28.5 | 22.9 | > 80.6 | 11.5 | 30.2 | 11.9 | 41.2 | 17.2 | 42.5 | 0.799 µM | 35.9 µM | 6.83 | > 100 | 8.11 | > 49.9
C/C(=N\NC(=O)c1ccncc1)c1ccc2ccccc2c1O | – | > 100 | – | 23.2 | – | 14.1 | – | > 62.2 | – | > 65.2 | – | 40.9 | – | 20.4 | – | > 54.3 µM | – | > 84.5 | – | 14.5
COc1ccc(C(=O)c2ccc(OC)c(OC)c2OC)cc1 | 4.77 | > 100 | 1.79 | 8.2 | 1.68 | 37.2 | 0.725 | > 100 | 7.08 | > 100 | 8.33 | > 100 | 1.99 | 11.6 | 0.693 µM | 7.8 µM | 1.21 | > 100 | 5.37 | > 100
CCCCCCCCCCCCCCCCCC1=NCCN1CS(=O)(=O)O | 11.4 | 25 | 19.4 | 46.8 | 18.8 | 40.5 | 9.54 | 29 | 14.9 | 33 | 12.8 | 28.9 | 3.24 | 8.39 | 16.1 µM | 35.3 µM | 9.3 | 22.6 | 20 | 43.1
CN1CCCNc2c(c(=O)c2=O)NCCCN(C)CCCNc2c(c(=O)c2=O)NCCCN(C)CCCNc2c(c(=O)c2=O)NCCCN(C)CCCNc2c(c(=O)c2=O)NCCCN(C)CCCNc2c(c(=O)c2=O)NCCCN(C)CCCNc2c(c(=O)c2=O)NCCCN(C)CCCNc2c(c(=O)c2=O)NCCC1 | 5.54 | 15.8 | 1.89 | 7.69 | 6.69 | 21.9 | 2.23 | > 50 | 2.98 | 16.7 | 1.34 | 14.2 | 3.9 | > 50 | 5.96 µM | 26.7 µM | 6.14 | 13.1 | 2.06 | 7.74
C1CCN(CCC2CCCCN2)CC1 (stereo unspecified) | – | > 100 | – | > 100 | – | > 100 | – | > 100 | – | > 100 | – | > 100 | – | > 100 | – | > 100 µM | – | > 100 | – | > 100
CCCCCCCC/C=C/CCCCCCCC1=NCC[N+]1(CCO)CCO | 4.71 | 26.4 | 3.7 | 13.1 | 2.24 | 5.68 | 1.42 | 2.86 | 3.87 | 14.9 | 3.2 | 12.6 | 1.69 | 3.39 | 11.8 µM | 37.7 µM | 2.41 | 8.32 | 7.08 | 22.7
Cc1cccc(Oc2nccc(-c3c(-c4ccc(F)cc4)ncn3C3CCNCC3)n2)c1C | > 14 | > 25 | 4.84 | 10.4 | 3.61 | 6.92 | 7.28 | > 22.6 | 7.9 | > 25 | 9.16 | > 25 | 6.24 | > 15 | 11.5 µM | > 25 µM | 8.79 | > 19.8 | 4.92 | 10.6
C=C(C)[C@@H]1CC[C@]2(C)[C@H](C(=O)C=C3[C@@H]4C[C@](C)(C(=O)N5CCN(C)CC5)CC[C@]4(C)CC[C@]32C)[C@@]1(C)CCC#N | 7.24 | 14 | 6.3 | 12.7 | 7.3 | 13.9 | 6.05 | 12.7 | 6.21 | 13.6 | 6.37 | 12.9 | 6.48 | 13.9 | 6.83 µM | 13.9 µM | 6.27 | 12.5 | 4.42 | 13.4
COc1cc(NCCCCN=C(N)NC(N)=NC(C)C)c2ncccc2c1 | 5.83 | > 62 | 8.14 | 22.2 | 2.84 | 10.7 | 5.65 | 21.1 | 0.0797 | 2.15 | 5.21 | 28.5 | 5.97 | 20 | > 100 µM | > 100 µM | > 100 | > 100 | 0.739 | 8.2
CCN(CC)CCCNc1cccc2c(SCc3ccccc3)ccnc12 | 2.24 | 6.71 | 1.63 | 3.13 | 1.68 | 3.08 | 1.69 | 3.25 | 2.62 | 8.29 | 1.81 | 12.6 | 1.7 | 3.45 | 1.96 µM | 5.6 µM | 1.59 | 3.21 | 1.93 | 4.29
CC(=O)c1c(C(F)(F)F)n([O-])c2ccc(Cl)cc2[n+]1=O | 0.818 | 2.29 | 0.161 | 0.526 | 0.822 | 2.65 | 0.772 | 4.89 | 19 | 50.8 | 0.99 | 2.52 | 0.0191 | 0.286 | 3.4 µM | > 23.1 µM | 3.69 | 13.5 | 2.31 | > 40.4
CN(C)c1ccc(/C=C(/NC(=O)c2ccccc2)c2nc3ccc(Cl)cc3[nH]2)cc1 | – | > 100 | – | > 100 | – | 39.3 | – | > 100 | – | > 100 | – | > 100 | – | > 100 | 30.7 µM | > 100 µM | – | > 100 | 17.5 | > 77.1
